# Target: CDK2/CyclinE1 (Homo sapiens (Human), UniProt P24941)
# Assay: CDK2 kinase assay (TR-FRET)
# Type: biochemical
# Details: CDK2/CyclinE1 0.5 nM, ATP 50 μM
# Method: The purpose of these assays is to evaluate the inhibition of small molecule inhibitors by using TR-FRET assay.
# Compound Preparation. Dissslove the compounds into DMSO solution to make 10 mM DMSO stock. Serially dilute the stock solution from highest concentration down to lowest in DMSO to make the compound stock plate (100× stock plates). To make 5× compound intermediate plate, add 38 μL of assay buffer (50 mM HEPES, pH 7.5, 0.05 mg/mL BSA, 10 mM MgCl2, 1 mM EGTA, 0.01% Tween-20, 2 mM DTT) into each well of the V-bottom plate; then transfer 2 μL of the stock compound solution of each concentration from the compound stock plate (100× stock), and mix well.
# Enzyme reaction. Transfer 2 μL compound from 5× intermediate plate into assay plate, then add 4 μL/well 2.5× Enzyme mix to assay plate, incubation for 10 min at room temperature. For positive control wells, add 4 μL/well assay buffer instead of Enzyme mix. Then add 4 μL/well 2.5× Substrate mix to assay plate, and incubation at 25° C. for 30 min at room temperature. After reaction, 10 μL 2× Detection mix (final 15 mM EDTA, 1× LANCE Detection Buffer, 0.5 nM Detection antibody) was added and incubated for 1 h prior to detection with excitation and emission at 320 and 665 nm (Tecan Spark® TR-FRET mode Tecan).
# Inhibition rate (IR) of the tested compounds was determined by the following formula: IR (%)=(average High control−compound well)/(average High control−average Low control)*100%. Fit the compound IC50 from non-linear regression equation: Y=Bottom+(Top−Bottom)/(1+10^((Log IC50−X)*HillSlope)). X: Log of cpd concentration; Y: Inhibition rate (TR); Top and Bottom: Plateaus in same units as Y, log IC50: same log units as X; HillSlope: Slope factor or Hill slope.
row,IC50 [nM],Structure (SMILES)
1,22.4,"Cc1cc(CC(=O)Nc2cc([C@H]3CC[C@@H](OC(=O)NC4COC5(CCC5)C4)C3)[nH]n2)on1 (single isomer, unassigned) [Compound 38]"
2,4,"Cc1cc(CC(=O)Nc2cc([C@H]3CC[C@@H](OC(=O)NC4COC5(CCC5)C4)C3)[nH]n2)on1 (single isomer, unassigned) [Compound 39]"
3,12.1,"Cn1nccc1C(=O)Nc1cc([C@H]2CC[C@@H](OC(=O)NC3COC4(CCC4)C3)C2)[nH]n1 (single isomer, unassigned) [Compound 43]"
4,64,"Cn1nc(C2CC2)cc1C(=O)Nc1cc([C@H]2CC[C@@H](OC(=O)NC3COC4(CCC4)C3)C2)[nH]n1 (single isomer, unassigned) [Compound 47]"
5,10.7,"Cn1nc(C2CC2)cc1C(=O)Nc1cc([C@H]2CC[C@@H](OC(=O)NC3COC4(CCC4)C3)C2)[nH]n1 (single isomer, unassigned) [Compound 48]"
6,37.4,"COC1CCC(C(=O)Nc2cc([C@H]3CC[C@@H](OC(=O)NC(C)C)C3)[nH]n2)C1 (single isomer, unassigned) [Compound 60]"
7,13.1,"COC1CCC(C(=O)Nc2cc([C@H]3CC[C@@H](OC(=O)NC(C)C)C3)[nH]n2)C1 (single isomer, unassigned) [Compound 61]"
8,3,"COC[C@H]1C[C@@H]1C(=O)Nc1cc([C@H]2CC[C@@H](OC(=O)NC(C)C(F)F)C2)[nH]n1 (single isomer, unassigned) [Compound 107]"
9,5,"COC[C@H]1C[C@@H]1C(=O)Nc1cc([C@H]2CC[C@@H](OC(=O)NC(C)C(F)F)C2)[nH]n1 (single isomer, unassigned) [Compound 108]"
10,3.8,"CC(C)NC(=O)O[C@@H]1CC[C@H](c2cc(NC(=O)C3CC3C#N)n[nH]2)C1 (single isomer, unassigned) [Compound 117]"
11,1.8,"CC(C)NC(=O)O[C@@H]1CC[C@H](c2cc(NC(=O)C3CC3C#N)n[nH]2)C1 (single isomer, unassigned) [Compound 118]"
12,4.3,"CC(C)NC(=O)O[C@@H]1CC[C@H](c2cc(NC(=O)C3CC(C)N(S(C)(=O)=O)C3)n[nH]2)C1 (single isomer, unassigned) [Compound 144]"
13,44.3,"CC(C)NC(=O)O[C@@H]1CC[C@H](c2cc(NC(=O)C3CC4CCC3O4)n[nH]2)C1 (single isomer, unassigned) [Compound 146]"
14,5.5,"COCC1CC(C(=O)Nc2cc([C@H]3CC[C@@H](OC(=O)NC(C)C)C3)[nH]n2)C1 (single isomer, unassigned) [Compound 148]"
15,13.4,"COCC1CC(C(=O)Nc2cc([C@H]3CC[C@@H](OC(=O)NC(C)C)C3)[nH]n2)C1 (single isomer, unassigned) [Compound 149]"
16,85.5,"CC(C)NC(=O)O[C@@H]1CC[C@H](c2cc(NC(=O)C3CC4CCC3O4)n[nH]2)C1 (single isomer, unassigned) [Compound 152]"
17,2.1,"CC(C)NC(=O)O[C@@H]1CC[C@H](c2cc(NC(=O)C3CC3c3cnnn3C)n[nH]2)C1 (single isomer, unassigned) [Compound 153]"
18,2.6,"CC(C)NC(=O)O[C@@H]1CC[C@H](c2cc(NC(=O)C3CC3c3cnnn3C)n[nH]2)C1 (single isomer, unassigned) [Compound 154]"
19,0.7,"Cc1c(C2CC2C(=O)Nc2cc([C@H]3CC[C@@H](OC(=O)NC(C)C)C3)[nH]n2)cnn1C (single isomer, unassigned) [Compound 163]"
20,1.4,"CC(C)(C)NC(=O)O[C@@H]1CC[C@H](c2cc(NC(=O)C3CC3C#N)n[nH]2)C1 (single isomer, unassigned) [Compound 187]"
21,0.6,"CC(C)(C)NC(=O)O[C@@H]1CC[C@H](c2cc(NC(=O)C3CC3C#N)n[nH]2)C1 (single isomer, unassigned) [Compound 188]"
22,2,"CC(C)NC(=O)O[C@H]1CC[C@@H](c2cc(NC(=O)C3CC3C#N)n[nH]2)C1 (single isomer, unassigned) [Compound 192]"
23,0.6,"CC(C)NC(=O)O[C@H]1CC[C@@H](c2cc(NC(=O)C3CC3C#N)n[nH]2)C1 (single isomer, unassigned) [Compound 193]"
24,1.5,"CC1(NC(=O)O[C@H]2CC[C@@H](c3cc(NC(=O)C4CC4C#N)n[nH]3)C2)CC1 (single isomer, unassigned) [Compound 195]"
25,0.4,"CC1(NC(=O)O[C@H]2CC[C@@H](c3cc(NC(=O)C4CC4C#N)n[nH]3)C2)CC1 (single isomer, unassigned) [Compound 196]"
26,2.3,"CC[C@H](C)NC(=O)O[C@@H]1CC[C@H](c2cc(NC(=O)C3CC3C#N)n[nH]2)C1 (single isomer, unassigned) [Compound 199]"

row,IC50 [nM],Structure (SMILES)
1,0.9,"CC[C@H](C)NC(=O)O[C@@H]1CC[C@H](c2cc(NC(=O)C3CC3C#N)n[nH]2)C1 (single isomer, unassigned) [Compound 200]"
2,24,"Cc1c(C2CC2C(=O)Nc2cc([C@H]3CC[C@@H](OC(=O)NC4(C)CC4)C3)[nH]n2)cnn1C (single isomer, unassigned) [Compound 205]"
3,0.8,"Cc1c(C2CC2C(=O)Nc2cc([C@H]3CC[C@@H](OC(=O)NC4(C)CC4)C3)[nH]n2)cnn1C (single isomer, unassigned) [Compound 206]"
4,40.1,"Cc1c(C2CC2C(=O)Nc2cc([C@@H]3CC[C@H](OC(=O)NC(C)C)C3)[nH]n2)cnn1C (single isomer, unassigned) [Compound 207]"
5,0.8,"Cc1c(C2CC2C(=O)Nc2cc([C@@H]3CC[C@H](OC(=O)NC(C)C)C3)[nH]n2)cnn1C (single isomer, unassigned) [Compound 208]"
6,29,"CC(C)NC(=O)O[C@@H]1CC[C@H](c2cc(NC(=O)C3CC3c3cnn(C)c3)n[nH]2)C1 (single isomer, unassigned) [Compound 209]"
7,1,"CC(C)NC(=O)O[C@@H]1CC[C@H](c2cc(NC(=O)C3CC3c3cnn(C)c3)n[nH]2)C1 (single isomer, unassigned) [Compound 210]"
8,2.1,"CC1(NC(=O)O[C@@H]2CC[C@H](c3cc(NC(=O)C4CC4C#N)n[nH]3)C2)CC1 (single isomer, unassigned) [Compound 212]"
9,0.9,"CC1(NC(=O)O[C@@H]2CC[C@H](c3cc(NC(=O)C4CC4C#N)n[nH]3)C2)CC1 (single isomer, unassigned) [Compound 213]"
10,1.5,"COC(C)[C@H]1C[C@@H]1C(=O)Nc1cc([C@H]2CC[C@@H](OC(=O)NC3(C)CC3)C2)[nH]n1 (single isomer, unassigned) [Compound 220]"
11,0.8,"COC(C)[C@H]1C[C@@H]1C(=O)Nc1cc([C@H]2CC[C@@H](OC(=O)NC3(C)CC3)C2)[nH]n1 (single isomer, unassigned) [Compound 221]"
12,7.1,CC(C)NC(=O)O[C@@H]1CC[C@H](c2cc(NC(=O)C3CCOCC3)n[nH]2)C1 [Compound 1]
13,17.8,CO[C@H]1CC[C@H](C(=O)Nc2cc([C@H]3CC[C@@H](OC(=O)NC(C)C)C3)[nH]n2)CC1 [Compound 2]
14,2.4,CC(C)NC(=O)O[C@@H]1CC[C@H](c2cc(NC(=O)[C@H]3CCN(S(C)(=O)=O)C3)n[nH]2)C1 [Compound 7]
15,11.3,CC(C)NC(=O)O[C@@H]1CC[C@H](c2cc(NC(=O)C3CCN(S(C)(=O)=O)CC3)n[nH]2)C1 [Compound 8]
16,1000,COCc1cc(C(=O)Nc2cc([C@@H]3C[C@H](OC(=O)NC(C)C)[C@@H]4C[C@@H]43)[nH]n2)n(C)n1 [Compound 9]
17,92.4,COCc1cc(C(=O)Nc2n[nH]c([C@H]3CC[C@@H](OC(=O)NC(C)C)C3)c2F)n(C)n1 [Compound 10]
18,40.7,CC(C)NC(=O)O[C@@H]1CC[C@H](c2cc(Nc3nccc(-c4cnn(C)c4)n3)n[nH]2)C1 [Compound 11]
19,10.1,CC(C)NC(=O)O[C@@H]1CC[C@H](c2cc(Nc3nccc(CCO)n3)n[nH]2)C1 [Compound 12]
20,5.8,CC(C)NC(=O)O[C@@H]1CC[C@H](c2cc(NC(=O)[C@H]3CCN(CC(F)F)C3)n[nH]2)C1 [Compound 13]
21,1.7,CC(C)NC(=O)O[C@@H]1CC[C@H](c2cc(NC(=O)[C@H]3CCN(C(=O)C(C)C)C3)n[nH]2)C1 [Compound 14]
22,1000,COCc1cc(C(=O)NC2=NCC([C@H]3CC[C@H](N4CCN(C(C)C)C4=O)C3)=C2)n(C)n1 [Compound 20]
23,3.7,CC(C)NC(=O)OC1COC(c2cc(NC(=O)c3ccnn3C)n[nH]2)C1 (stereo not shown) [Compound 26]
24,1.2,CC(C)NC(=O)OC1COC(c2cc(NC(=O)c3ccnn3C)n[nH]2)C1 (stereo not shown) [Compound 27]
25,110,COC[C@@H]1C[C@H]1C(=O)Nc1cc([C@H]2CC[C@@H](OC(=O)NC(C)C)C2)[nH]n1 [Compound 28]
26,68.8,CC(C)NC(=O)O[C@@H]1CC[C@H](c2cc(Nc3nccc(CCO)n3)n[nH]2)C1 [Compound 29]

# — patent US20250195475A1, “CDK2 INHIBITOR AND PREPARATION METHOD AND USE THEREOF” (INVENTISBIO CO., LTD., priority 2022, published 2025)
